The values below come from patent US20070232904A1, “Application of Hyaluronic Acid to Sentinel Lymph Node Identification” (OAKLEY, INC., priority 2004, published 2007).

The test system of the data set is sentinel lymph node (SLN). Description: Sentinel lymph node detection after submucosal injection in stomach and small intestine of laparotomized pig, observed by color change. It counts as in vivo. The settings on record: 0.5 mL submucosal. Here is the method:
A pig was laparotomized under general anesthesia and the mixture of the sodium hyaluronate and the patent blue prepared in (1) above and patent blue alone as a control were each injected at two locations which were in the tissues (submucosal) of the stomach and small intestine at 0.5 mL each, and migration from the lymphatic vessels to the lymph nodes was monitored for 3 hours after injection based on the changes in color under laparotomy. […] In addition, the colored lymph nodes were investigated histologically after 3 hours and after 24 hours. A pig was laparotomized under general anesthesia and the mixture of the sodium hyaluronate and the ferumoxides injection solution prepared in (1) above and the ferumoxides injection solution alone as a control were each injected at two locations which were in the tissues (submucosal) of the stomach and small intestine at 0.5 mL each, and migration from the lymphatic vessels to the lymph nodes was monitored for 3 hours after injection based on the changes in color under laparotomy. […] In addition, the colored lymph nodes were investigated histologically after 3 hours and after 24 hours. […]

Turning to `CCN(CC)c1ccc(C(=C2C=CC(=[N+](CC)CC)C=C2)c2cc(O)c(S(=O)(=O)O)cc2S(=O)(=O)O)cc1` [patent blue], where the note is “after injection”, the “time to almost complete disappearance from the associated lymphatic system” value is ≤ 2 h. For the same compound, the “time until staining of the lymphatic system / SLN after injection” value (stomach and small intestine wall) is listed as “several minutes”.
